Several values for one entry are separate records, joined by “and”; a condition that tells them apart may be missing. Equal values may be shown once.
How the values were obtained:
OCI-Ly3 xenografts = assay: OCI-Ly3 xenograft in NSG mice; assay type: in vivo, mouse; conditions: daily i.p., vs DMSO, result in words
Source text: (§1) TMD8 cells were engrafted into 8-week-old female NOD.CB17-Prkdc^scid/J (NOD-SCID) mice from The Jackson Laboratory by subcutaneous injection of 10 × 10^6 cells resuspended in 50% Cultrex Basement Membrane Extract (R&D Systems, catalog 3632-010-02) into the right flank. OCI-Ly3 cells were engrafted into 5-week-old female NOD.Cg-Prkdc^scid Il2rg^tm1Wjl/SzJ (NSG) mice from The Jackson Laboratory by subcutaneous injection of 2.5 × 10^6 cells resuspended in Cultrex as above. OCI-Ly1 cells were engrafted into 6.5-week-old female NSG mice from The Jackson Laboratory by subcutaneous injection of 20 × 10^6 cells resuspended in Cultrex as above. For all xenograft models, when tumors reached an average volume of 100 mm^3, mice were randomized to receive M1i-124 (50 mg/kg i.p. per day), or equivalent volume of DMSO vehicle (50 μL i.p. per day). […] Tumor size was measured 3 times a week using a caliper and calculated using the formula (smallest diameter^2 × largest diameter)/2. Mice were sacrificed 24 hours after the last injection. Mice were sacrificed when the largest tumors reached 2,500 mm^3. For TMD8 xenograft experiments, tumors and various organs, including lung, heart, liver, and kidney, were collected and fixed in 10% buffered formalin, embedded in FFPE blocks, sectioned, and stained with H&E. Sections were evaluated by a board-certified pathologist.

TMD8 tumor xenografts = assay: TMD8 xenograft in NOD-SCID mice; assay type: in vivo, mouse
Source text: as §1

OCI-Ly3 cells = assay: Apoptosis, annexin V/SYTOX Blue flow cytometry; assay type: cell-based, human
Procedure: Cell proliferation, viability, and apoptosis assays. […]
Annexin V Alexa 488
(ThermoFisher Scientific, Cat# A13201) and SYTOX Blue Dead Cell (ThermoFisher Scientific, Cat# S34857) stains were used to detect apoptosis in DLBCL cells after treatment with 1 µM compounds for 8 days in TMD8 and OCI-Ly1 and for 5 days in OCI-Ly3 cells, then analyzed with flow cytometry. The percentages of cells in early and late apoptosis were combined for quantification. For CellTrace Violet, CellTiter-glo, and Annexin V apoptosis assays, cell were cultured in media with 50% of the usual serum. […]

LCK = molecular target: T1, LCK (Homo sapiens, UniProt P06239); assay: SAFETYscan78 off-target screen; conditions: off-target panel; read-out: EC50 or IC50, LCK
T1 construct: Eurofins SAFETYscan78
T1 sequence (P06239 whole entry): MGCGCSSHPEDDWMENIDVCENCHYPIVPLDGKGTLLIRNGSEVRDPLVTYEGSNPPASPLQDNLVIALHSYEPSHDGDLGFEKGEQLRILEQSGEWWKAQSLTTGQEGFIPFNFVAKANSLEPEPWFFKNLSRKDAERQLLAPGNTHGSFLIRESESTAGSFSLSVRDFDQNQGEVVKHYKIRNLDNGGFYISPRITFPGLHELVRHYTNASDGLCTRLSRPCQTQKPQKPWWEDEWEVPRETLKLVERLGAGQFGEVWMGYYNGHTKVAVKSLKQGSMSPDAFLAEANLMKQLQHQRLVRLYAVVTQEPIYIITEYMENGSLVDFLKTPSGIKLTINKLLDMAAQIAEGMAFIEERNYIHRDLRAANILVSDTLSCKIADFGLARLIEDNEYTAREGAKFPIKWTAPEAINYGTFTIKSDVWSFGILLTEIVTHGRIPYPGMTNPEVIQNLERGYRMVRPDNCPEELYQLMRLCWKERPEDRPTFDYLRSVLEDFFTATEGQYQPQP
Source text: We also tested for possible adverse actions of M1i-124 on cytochrome P450 (CYP) enzymes that might limit its use in vivo. The CYP family of enzymes are responsible for phase I metabolism of many drugs and endogenous substances, and their inhibition can lead to unanticipated toxicities. […] To further test for potential off-target effects of M1i-124, we conducted an in vitro safety pharmacology profiling screen that measures the ability of a candidate compound to inhibit 78 key GPCRs, ion channels, nuclear hormone receptors, neurotransmitter transporters, kinases, and non-kinase enzymes. […]
cological profile for M1i-124. EC50 or I C50 f or act i vi t y agai nst sel ect GPCRs, i on channel s, nucl ear hor mone r eceptor s, ki nases, and neur otr ansmi tter tr anspor ter s i n an off-target activity screen of M1i-124 (Eurofins SAFETYscan78). When unmeasurable, the EC50 or IC50 for an indicated target is listed as >10 […]
(1 picture or pasted object on this page, not shown here)

OCI-Ly1 xenografts = assay: OCI-Ly1 xenograft in NSG mice; assay type: in vivo, mouse; conditions: daily i.p., result in words
Source text: as §1

For `O=S(=O)(NCc1ccc2c(c1)OCO2)c1ccc(Cc2ccc(S(=O)(=O)NCc3ccc4c(c3)OCO4)cc2)cc1` [M1i-124], the “OCI-Ly3 xenograft tumor growth” value (OCI-Ly3 xenografts) was “significant decrease in tumor growth”, the “growth of TMD8 tumor xenografts (tumor volume, terminal tumor weight)” value (TMD8 tumor xenografts; 50 mg/kg i.p. per day, 12 days, vs DMSO, result in words) was “significantly suppressed” and the “body weight of xenograft mice” value (TMD8 tumor xenografts; at conclusion of experiment, result in words) was “slightly lower body weights”. For the same compound, the “microscopic evaluation of major organs” value (TMD8 tumor xenografts; heart, lung, liver, adrenal, kidney, result in words) was “no signs of histologic abnormality”, the Terminal body weights (TMD8 tumor xenografts; individual mice) was 17.69 g and 19.26 g and 19.45 g and 20.17 g and 20.3 g and 20.4 g and 20.6 g and 20.42 g and the “clinical signs during treatment” value (TMD8 tumor xenografts; result in words) was “No abnormal clinical signs or indicators of adverse reaction were observed”. The “apoptosis of OCI-Ly3 cells” value (OCI-Ly3 cells; 1 μM, result in words) was “selectively induced apoptosis”, the “Percent Apoptotic cells” value (OCI-Ly3 cells; OCI-Ly3) was 91.3% and 82.7% and 75% and 93.6% and 88.1% and 93.3% and 87.8% and 75.8% and the IC50 (LCK) was > 10 µM. For the same compound, the OCI-Ly1 xenograft growth (OCI-Ly1 xenografts) was “no effect”.

Reference: PMC11996864, “A small-molecule inhibitor of BCL10-MALT1 interaction abrogates progression of diffuse large B cell lymphoma” (The Journal of Clinical Investigation, 2025)
